Experimental data taken from patent US10556884B2, “Pesticidally active heterocyclic derivatives with sulphur containing substituents” (SYNGENTA PARTICIPATIONS AG, priority 2015, dated 2020).
Like-named read-outs stand apart in the source and are kept apart here. One block for each molecule: values may come before it.

How the values were obtained:
[1] = tested on: Myzus persicae (Green Peach Aphid); test: Myzus persicae feeding/contact activity, sunflower leaf discs; assay type: in vivo; details: foliar, 144 h
Method: Example B5: Myzus persicae (Green Peach Aphid): Feeding/Contact Activity
(§1) Sunflower leaf discs were placed onto agar in a 24-well microtiter plate and sprayed with aqueous test solutions prepared from 10′000 ppm DMSO stock solutions. After drying, the leaf discs were infested with an aphid population of mixed ages. The samples were assessed for mortality 6 days after infestation.

[2] = tested on: Myzus persicae (Green Peach Aphid); test: Myzus persicae systemic activity, pea seedlings; assay type: in vivo; details: 144 h, test rate of 24 ppm, 6 days after placing seedlings into test solutions
[3] = tested on: Spodoptera littoralis (Egyqptian Cotton Leaf Worm); test: Spodoptera littoralis L1 larvae on sprayed cotton leaf discs; assay type: in vivo; details: foliar, 72 h, read-out: control (mortality, anti-feeding effect, growth inhibition)
Method: Example B8: Spodoptera littoralis (Egyqptian Cotton Leaf Worm)
Cotton leaf discs were placed onto agar in 24-well microtiter plates and sprayed with aqueous test solutions prepared from 10′000 ppm DMSO stock solutions. After drying the leaf discs were infested with five L1 larvae. The samples were assessed for mortality, anti-feeding effect, and growth inhibition in comparison to untreated samples 3 days after infestation. Control of Spodoptera littoralis by a test sample is given when at least one of the categories mortality, anti-feedant effect, and growth inhibition is higher than the untreated sample.

[4] = tested on: Diabrotica Balteata (Corn Root Worm); test: Diabrotica balteata L2 larvae on maize sprouts; assay type: in vivo; details: 96 h, read-out: effect in at least one of the two categories (mortality or growth inhibition); for percent effect (mortality or growth inhibition) at 200 ppm: application rate of 200 ppm, L2 larvae, 4 days after infestation
Method: Example B2: Diabrotica Balteata (Corn Root Worm)
Maize sprouts placed onto an agar layer in 24-well microtiter plates were treated with aqueous test solutions prepared from 10′000 ppm DMSO stock solutions by spraying. After drying, the plates were infested with L2 larvae (6 to 10 per well). The samples were assessed for mortality and growth inhibition in comparison to untreated samples 4 days after infestation.

[5] = tested on: Thrips tabaci (Onion Thrips); test: Thrips tabaci feeding/contact activity, sunflower leaf discs; assay type: in vivo; details: foliar, 144 h, application rate of 200 ppm, population of mixed ages, 6 days after infestation
Method: Example B11: Thrips tabaci (Onion Thrips) Feeding/Contact Activity
as §1, with “on” for “onto”, “in” for “in a”, “plates” for “plate”, “drying” for “drying,”, “a thrips” for “an aphid”

[6] = tested on: Plutella xylostella (Diamond Back Moth); test: Plutella xylostella L2 larvae on artificial diet; assay type: in vivo; details: 120 h, read-out: effect in at least one of the two categories (mortality or growth inhibition); for percent effect (mortality or growth inhibition) at 200 ppm: application rate of 200 ppm, L2 larvae, 5 days after infestation
Method: Example B7: Plutella xylostella (Diamond Back Moth)
24-well microtiter plates with artificial diet were treated with aqueous test solutions prepared from 10′000 ppm DMSO stock solutions by pipetting. After drying, the plates were infested with L2 larvae (10 to 15 per well). The samples were assessed for mortality and growth inhibition in comparison to untreated samples 5 days after infestation.

[7] = application rate of 200 ppm, feeding/contact, population of mixed ages, 6 days after infestation, read-out: mortality
[8] = application rate of 200 ppm, L1 larvae, 3 days after infestation

SMILES: CCSc1cc(NC(=O)C2CC2)cnc1-c1nnc(-c2cc(C(F)(F)F)ccn2)n1C [A1, N-[5-ethylsulfanyl-6-[4-methyl-5-[4-(trifluoromethyl)-2-pyridyl]-1,2,4-triazol-3-yl]-3-pyridyl]cyclopropanecarboxamide]
mortality at 200 ppm [1, 7]: ≥ 80%

SMILES: CCS(=O)(=O)c1cc(C=O)cnc1-c1nnc(-c2cc(C(F)(F)F)ccn2)n1C [A3, 5-ethylsulfonyl-6-[4-methyl-5-[4-(trifluoromethyl)-2-pyridyl]-1,2,4-triazol-3-yl]pyridine-3-carbaldehyde]
mortality at 200 ppm [1, 7]: ≥ 80%
mortality at 24 ppm [2]: ≥ 80%

SMILES: CCS(=O)(=O)c1cc(C(C)=O)cnc1-c1nnc(-c2cc(C(F)(F)F)ccn2)n1C [A4, 1-[5-ethylsulfonyl-6-[4-methyl-5-[4-(trifluoromethyl)-2-pyridyl]-1,2,4-triazol-3-yl]-3-pyridyl]ethanone]
mortality at 24 ppm [2]: ≥ 80%

SMILES: CCS(=O)(=O)c1ccc(NC2CC2)nc1-c1nnc(-c2cc(C(F)(F)F)ccn2)n1C [A5, N-cyclopropyl-5-ethylsulfonyl-6-[4-methyl-5-[4-(trifluoromethyl)-2-pyridyl]-1,2,4-triazol-3-yl]pyridin-2-amine]
mortality at 200 ppm [1, 7]: ≥ 80%
mortality at 24 ppm [2]: ≥ 80%

SMILES: CCS(=O)(=O)c1ccc(N(C)C(=O)C2CC2)nc1-c1nnc(-c2cc(C(F)(F)F)ccn2)n1C [A8, N-[5-ethylsulfonyl-6-[4-methyl-5-[4-(trifluoromethyl)-2-pyridyl]-1,2,4-triazol-3-yl]-2-pyridyl]-N-methyl-cyclopropanecarboxamide]
mortality at 200 ppm [3, 8]: ≥ 80%
percent effect (mortality or growth inhibition) at 200 ppm [4]: ≥ 80%
mortality at 200 ppm [5]: ≥ 80%
mortality at 200 ppm [1, 7]: ≥ 80%
mortality at 24 ppm [2]: ≥ 80%
percent effect (mortality or growth inhibition) at 200 ppm [6]: ≥ 80%

SMILES: CCS(=O)(=O)c1cc(N(C)C2CC2)cnc1-c1nnc(-c2cc(C(F)(F)F)ccn2)n1C [A10, N-cyclopropyl-5-ethylsulfonyl-N-methyl-6-[4-methyl-5-[4-(trifluoromethyl)-2-pyridyl]-1,2,4-triazol-3-yl]pyridin-3-amine]
mortality at 200 ppm [3, 8]: ≥ 80%
mortality at 200 ppm [1, 7]: ≥ 80%

SMILES: CCS(=O)(=O)c1ccc(N(C)C2CC2)nc1-c1nnc(-c2cc(C(F)(F)F)ccn2)n1C [A11, N-cyclopropyl-5-ethylsulfonyl-N-methyl-6-[4-methyl-5-[4-(trifluoromethyl)-2-pyridyl]-1,2,4-triazol-3-yl]pyridin-2-amine]
mortality at 200 ppm [1, 7]: ≥ 80%
mortality at 24 ppm [2]: ≥ 80%

SMILES: CCS(=O)(=O)c1cc(N(C)S(C)(=O)=O)cnc1-c1nnc(-c2cc(C(F)(F)F)ccn2)n1C [A12, N-[5-ethylsulfonyl-6-[4-methyl-5-[4-(trifluoromethyl)-2-pyridyl]-1,2,4-triazol-3-yl]-3-pyridyl]-N-methyl-methanesulfonamide]
mortality at 200 ppm [1, 7]: ≥ 80%
mortality at 24 ppm [2]: ≥ 80%

melting point: 228 to 230 °C
SMILES: CCS(=O)(=O)c1cc(NS(C)(=O)=O)cnc1-c1nnc(-c2cc(C(F)(F)F)ccn2)n1C [A14, N-[5-ethylsulfonyl-6-[4-methyl-5-[4-(trifluoromethyl)-2-pyridyl]-1,2,4-triazol-3-yl]-3-pyridyl]methanesulfonamide]

melting point: 235 to 237 °C
SMILES: CCS(=O)(=O)c1cc(C(=O)N(C)C2CC2)cnc1-c1nnc(-c2cc(C(F)(F)F)ccn2)n1C [A16, N-cyclopropyl-5-ethylsulfonyl-N-methyl-6-[4-methyl-5-[4-(trifluoromethyl)-2-pyridyl]-1,2,4-triazol-3-yl]pyridine-3-carboxamide]

SMILES: CCS(=O)(=O)c1ccc(C(=O)NC2CC2)nc1-c1nnc(-c2cc(C(F)(F)F)ccn2)n1C [A19, N-cyclopropyl-5-ethylsulfonyl-6-[4-methyl-5-[4-(trifluoromethyl)-2-pyridyl]-1,2,4-triazol-3-yl]pyridine-2-carboxamide]
mortality at 200 ppm [5]: ≥ 80%
mortality at 200 ppm [1, 7]: ≥ 80%
mortality at 24 ppm [2]: ≥ 80%

SMILES: CCS(=O)(=O)c1cc(NC2(C#N)CC2)cnc1-c1nnc(-c2cc(C(F)(F)F)ccn2)n1C [A22, 1-[[5-ethylsulfonyl-6-[4-methyl-5-[4-(trifluoromethyl)-2-pyridyl]-1,2,4-triazol-3-yl]-3-pyridyl]amino]cyclopropanecarbonitrile]
mortality at 24 ppm [2]: ≥ 80%

SMILES: CCS(=O)(=O)c1cc(N/C=N/OC)cnc1-c1nnc(-c2cc(C(F)(F)F)ccn2)n1C [A24, N-[5-ethylsulfonyl-6-[4-methyl-5-[4-(trifluoromethyl)-2-pyridyl]-1,2,4-triazol-3-yl]-3-pyridyl]-N′-methoxy-formamidine]
mortality at 24 ppm [2]: ≥ 80%

SMILES: CCS(=O)(=O)c1cc(N(C)/C=N/OC)cnc1-c1nnc(-c2cc(C(F)(F)F)ccn2)n1C [A25, N-[5-ethylsulfonyl-6-[4-methyl-5-[4-(trifluoromethyl)-2-pyridyl]-1,2,4-triazol-3-yl]-3-pyridyl]-N′-methoxy-N-methyl-formamidine]
mortality at 200 ppm [1, 7]: ≥ 80%
mortality at 24 ppm [2]: ≥ 80%

SMILES: CCS(=O)(=O)c1ccc(N(CC(F)(F)F)C(=O)C2CC2)nc1-c1nnc(-c2cc(C(F)(F)F)ccn2)n1C [A29, N-[5-ethylsulfonyl-6-[4-methyl-5-[4-(trifluoromethyl)-2-pyridyl]-1,2,4-triazol-3-yl]-2-pyridyl]-N-(2,2,2-trifluoroethyl)cyclopropanecarboxamide]
mortality at 200 ppm [3, 8]: ≥ 80%
percent effect (mortality or growth inhibition) at 200 ppm [4]: ≥ 80%
mortality at 200 ppm [5]: ≥ 80%
mortality at 200 ppm [1, 7]: ≥ 80%
percent effect (mortality or growth inhibition) at 200 ppm [6]: ≥ 80%

SMILES: CCS(=O)(=O)c1cc(N(C)N(C)C(=O)C2CC2)cnc1-c1nnc(-c2cc(C(F)(F)F)ccn2)n1C [A31, N′-[5-ethylsulfonyl-6-[4-methyl-5-[4-(trifluoromethyl)-2-pyridyl]-1,2,4-triazol-3-yl]-3-pyridyl]-N,N′-dimethyl-cyclopropanecarbohydrazide]
mortality at 200 ppm [1, 7]: ≥ 80%
mortality at 24 ppm [2]: ≥ 80%

SMILES: CCS(=O)(=O)c1cc(N)cnc1-c1nnc(-c2cc(C(F)(F)F)ccn2)n1C [A35, 5-ethylsulfonyl-6-[4-methyl-5-[4-(trifluoromethyl)-2-pyridyl]-1,2,4-triazol-3-yl]pyridin-3-amine]
mortality at 200 ppm [1, 7]: ≥ 80%

SMILES: CCS(=O)(=O)c1ccc(N(C)C(=O)OC(C)(C)C)nc1-c1nnc(-c2cc(C(F)(F)F)ccn2)n1C [A38, Tert-Butyl N-[5-ethylsulfonyl-6-[4-methyl-5-[4-(trifluoromethyl)-2-pyridyl]-1,2,4-triazol-3-yl]-2-pyridyl]-N-methyl-carbamate]
mortality at 200 ppm [3]: ≥ 80%
percent control (mortality or growth inhibition) at 200 ppm [4]: ≥ 80%
mortality at 200 ppm [1]: ≥ 80%
percent control (mortality or growth inhibition) at 200 ppm [6]: ≥ 80%

SMILES: CCS(=O)(=O)c1cc(N(C)C(=O)OC(C)(C)C)cnc1-c1nnc(-c2cc(C(F)(F)F)ccn2)n1C [A39, Tert-Butyl N-[5-ethylsulfonyl-6-[4-methyl-5-[4-(trifluoromethyl)-2-pyridyl]-1,2,4-triazol-3-yl]-3-pyridyl]-N-methyl-carbamate]
mortality at 200 ppm [3]: ≥ 80%
percent control (mortality or growth inhibition) at 200 ppm [4]: ≥ 80%
percent control (mortality or growth inhibition) at 200 ppm [6]: ≥ 80%

SMILES: CCS(=O)(=O)c1ccc(NC)nc1-c1nnc(-c2cc(C(F)(F)F)ccn2)n1C [A41, 5-ethylsulfonyl-N-methyl-6-[4-methyl-5-[4-(trifluoromethyl)-2-pyridyl]-1,2,4-triazol-3-yl]pyridin-2-amine]
mortality at 200 ppm [1, 7]: ≥ 80%
mortality at 24 ppm [2]: ≥ 80%
